In ChEMBL document CHEMBL5678818, “Discovery of potent SOS1 inhibitors that block RAS activation via disruption of the RAS-SOS1 interaction” (Proc Natl Acad Sci U S A, 2019):

Assays:
[1] = system: Phosphatidylinositol 4,5-bisphosphate 3-kinase catalytic subunit alpha isoform (Homo sapiens), P42336 [M1043I]; assay: Inhibition of PIK3CA M1043I mutant (unknown origin) assessed as residual activity at 1000 nM by KINOMEscan analysis relative to control
[2] = target: T1, Aurora kinase A (Homo sapiens) (UniProt O14965); assay: Inhibition of AURKA (unknown origin) assessed as residual activity at 1000 nM by KINOMEscan analysis relative to control
T1 sequence (whole entry): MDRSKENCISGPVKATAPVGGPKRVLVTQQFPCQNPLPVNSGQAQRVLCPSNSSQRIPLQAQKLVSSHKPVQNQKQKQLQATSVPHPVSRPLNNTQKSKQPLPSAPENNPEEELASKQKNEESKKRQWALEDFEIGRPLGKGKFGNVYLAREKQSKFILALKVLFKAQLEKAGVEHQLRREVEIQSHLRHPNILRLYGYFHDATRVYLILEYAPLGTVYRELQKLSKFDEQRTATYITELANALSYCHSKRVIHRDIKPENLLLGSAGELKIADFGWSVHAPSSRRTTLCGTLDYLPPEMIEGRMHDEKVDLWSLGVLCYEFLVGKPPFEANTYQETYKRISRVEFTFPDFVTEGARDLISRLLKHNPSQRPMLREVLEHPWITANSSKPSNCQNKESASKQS

[3] = target: Phosphorylase b kinase gamma catalytic chain, skeletal muscle/heart isoform (Homo sapiens) (UniProt Q16816); assay: Inhibition of PHKG1 (unknown origin) assessed as residual activity at 1000 nM by KINOMEscan analysis relative to control
Chain of Phosphorylase b kinase gamma catalytic chain, skeletal muscle/heart isoform (Homo sapiens) (Q16816 whole entry, looked up, canonical isoform): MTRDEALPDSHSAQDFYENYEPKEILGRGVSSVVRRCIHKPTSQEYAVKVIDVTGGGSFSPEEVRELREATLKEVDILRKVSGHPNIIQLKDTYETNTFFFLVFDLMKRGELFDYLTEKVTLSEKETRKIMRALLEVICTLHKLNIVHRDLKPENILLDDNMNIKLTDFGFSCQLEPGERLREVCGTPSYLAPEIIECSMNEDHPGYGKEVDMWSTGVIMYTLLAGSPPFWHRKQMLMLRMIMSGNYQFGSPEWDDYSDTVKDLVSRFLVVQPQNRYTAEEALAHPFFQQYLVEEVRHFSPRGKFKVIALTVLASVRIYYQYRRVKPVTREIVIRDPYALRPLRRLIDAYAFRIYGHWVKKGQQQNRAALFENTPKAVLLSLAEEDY

Homo sapiens = organism: Homo sapiens; assay: Inhibition of JNK1 (unknown origin) assessed as residual activity at 1000 nM by KINOMEscan analysis relative to control
[4] = target: Serine/threonine-protein kinase PLK2 (Homo sapiens) (UniProt Q9NYY3); assay: Inhibition of PLK2 (unknown origin) assessed as residual activity at 1000 nM by KINOMEscan analysis relative to control
Chain of Serine/threonine-protein kinase PLK2 (Homo sapiens) (Q9NYY3 whole entry, looked up, the tested form may be a part): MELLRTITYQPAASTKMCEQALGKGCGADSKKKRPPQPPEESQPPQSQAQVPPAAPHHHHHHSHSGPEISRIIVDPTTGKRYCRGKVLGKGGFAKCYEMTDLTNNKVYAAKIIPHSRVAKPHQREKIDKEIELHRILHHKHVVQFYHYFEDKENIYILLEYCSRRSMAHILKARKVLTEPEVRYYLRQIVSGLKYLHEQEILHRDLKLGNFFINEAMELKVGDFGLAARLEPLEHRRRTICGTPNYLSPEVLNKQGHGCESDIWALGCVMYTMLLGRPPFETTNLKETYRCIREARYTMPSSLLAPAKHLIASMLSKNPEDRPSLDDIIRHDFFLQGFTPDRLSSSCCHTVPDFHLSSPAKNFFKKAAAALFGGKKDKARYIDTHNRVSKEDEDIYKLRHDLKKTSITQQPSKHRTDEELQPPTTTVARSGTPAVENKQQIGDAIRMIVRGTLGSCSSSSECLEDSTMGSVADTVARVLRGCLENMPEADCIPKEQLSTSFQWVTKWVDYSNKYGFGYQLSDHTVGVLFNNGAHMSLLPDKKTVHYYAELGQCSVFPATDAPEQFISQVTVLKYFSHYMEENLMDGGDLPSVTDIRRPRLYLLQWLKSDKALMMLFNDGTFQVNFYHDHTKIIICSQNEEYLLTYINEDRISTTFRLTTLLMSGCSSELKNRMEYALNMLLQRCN

[5] = target: T2, Tyrosine-protein kinase JAK3 (Homo sapiens) (UniProt P52333); assay: Inhibition of JAK3 JH1 catalytic domain (unknown origin) assessed as residual activity at 1000 nM by KINOMEscan analysis relative to control
T2 sequence (whole entry): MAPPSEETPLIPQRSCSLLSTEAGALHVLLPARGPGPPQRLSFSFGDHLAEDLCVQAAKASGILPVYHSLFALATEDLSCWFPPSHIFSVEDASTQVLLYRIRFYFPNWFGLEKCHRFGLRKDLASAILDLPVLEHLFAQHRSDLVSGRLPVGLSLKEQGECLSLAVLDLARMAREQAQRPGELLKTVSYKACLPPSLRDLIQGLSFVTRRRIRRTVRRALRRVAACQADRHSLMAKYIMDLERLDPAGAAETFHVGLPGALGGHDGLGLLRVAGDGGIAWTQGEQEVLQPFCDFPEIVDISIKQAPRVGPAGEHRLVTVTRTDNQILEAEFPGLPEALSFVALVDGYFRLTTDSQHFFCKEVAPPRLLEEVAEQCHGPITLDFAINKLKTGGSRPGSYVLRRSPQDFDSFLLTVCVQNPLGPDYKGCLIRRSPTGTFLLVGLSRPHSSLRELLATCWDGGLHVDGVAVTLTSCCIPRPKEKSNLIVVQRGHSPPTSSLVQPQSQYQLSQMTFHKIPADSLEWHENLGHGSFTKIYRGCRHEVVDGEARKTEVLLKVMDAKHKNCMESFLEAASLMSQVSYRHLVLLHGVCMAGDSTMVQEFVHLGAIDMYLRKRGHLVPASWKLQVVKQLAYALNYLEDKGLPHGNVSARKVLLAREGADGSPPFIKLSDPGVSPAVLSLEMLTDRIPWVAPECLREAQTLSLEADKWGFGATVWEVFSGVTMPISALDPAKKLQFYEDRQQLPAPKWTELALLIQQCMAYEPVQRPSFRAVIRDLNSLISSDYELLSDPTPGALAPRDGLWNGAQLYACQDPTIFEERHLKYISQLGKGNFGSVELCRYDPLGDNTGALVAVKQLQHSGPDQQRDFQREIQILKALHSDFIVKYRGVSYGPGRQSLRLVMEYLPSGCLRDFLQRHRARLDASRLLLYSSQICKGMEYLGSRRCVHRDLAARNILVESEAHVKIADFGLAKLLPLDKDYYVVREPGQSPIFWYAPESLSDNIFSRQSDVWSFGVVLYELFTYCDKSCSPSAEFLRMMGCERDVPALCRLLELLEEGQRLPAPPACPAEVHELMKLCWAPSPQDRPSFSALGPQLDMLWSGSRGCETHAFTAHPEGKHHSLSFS

[6] = target: Mitogen-activated protein kinase kinase kinase 20 (Homo sapiens) (UniProt Q9NYL2); assay: Inhibition of ZAK (unknown origin) assessed as residual activity at 1000 nM by KINOMEscan analysis relative to control
Chain of Mitogen-activated protein kinase kinase kinase 20 (Homo sapiens) (Q9NYL2 2-800 limits assumed): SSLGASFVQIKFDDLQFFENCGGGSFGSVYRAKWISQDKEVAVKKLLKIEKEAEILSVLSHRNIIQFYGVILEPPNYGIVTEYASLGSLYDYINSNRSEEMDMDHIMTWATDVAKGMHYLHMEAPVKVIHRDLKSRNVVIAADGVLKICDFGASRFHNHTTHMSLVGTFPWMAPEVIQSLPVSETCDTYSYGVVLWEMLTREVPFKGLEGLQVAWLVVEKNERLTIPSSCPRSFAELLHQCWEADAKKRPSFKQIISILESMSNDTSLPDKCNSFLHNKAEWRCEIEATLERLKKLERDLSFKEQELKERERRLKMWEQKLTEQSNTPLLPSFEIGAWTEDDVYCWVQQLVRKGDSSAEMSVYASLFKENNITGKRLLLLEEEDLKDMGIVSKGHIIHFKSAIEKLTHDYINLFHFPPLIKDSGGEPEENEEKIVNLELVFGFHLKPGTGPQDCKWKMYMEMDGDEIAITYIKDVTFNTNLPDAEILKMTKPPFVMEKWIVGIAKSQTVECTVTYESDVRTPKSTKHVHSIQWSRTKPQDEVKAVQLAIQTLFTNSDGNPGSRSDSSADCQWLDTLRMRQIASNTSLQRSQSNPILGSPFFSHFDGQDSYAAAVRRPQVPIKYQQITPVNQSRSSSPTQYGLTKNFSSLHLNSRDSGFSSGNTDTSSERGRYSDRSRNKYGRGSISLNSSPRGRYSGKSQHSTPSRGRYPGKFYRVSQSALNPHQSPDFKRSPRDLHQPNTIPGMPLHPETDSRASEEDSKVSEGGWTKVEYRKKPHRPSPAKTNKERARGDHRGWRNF

[7] = system: Phosphatidylinositol 4,5-bisphosphate 3-kinase catalytic subunit alpha isoform (Homo sapiens), P42336 [E545A]; assay: Inhibition of PIK3CA E545A mutant (unknown origin) assessed as residual activity at 1000 nM by KINOMEscan analysis relative to control
Chain of Phosphatidylinositol 4,5-bisphosphate 3-kinase catalytic subunit alpha isoform (Homo sapiens), P42336 [E545A] (P42336 whole entry E545A, canonical isoform): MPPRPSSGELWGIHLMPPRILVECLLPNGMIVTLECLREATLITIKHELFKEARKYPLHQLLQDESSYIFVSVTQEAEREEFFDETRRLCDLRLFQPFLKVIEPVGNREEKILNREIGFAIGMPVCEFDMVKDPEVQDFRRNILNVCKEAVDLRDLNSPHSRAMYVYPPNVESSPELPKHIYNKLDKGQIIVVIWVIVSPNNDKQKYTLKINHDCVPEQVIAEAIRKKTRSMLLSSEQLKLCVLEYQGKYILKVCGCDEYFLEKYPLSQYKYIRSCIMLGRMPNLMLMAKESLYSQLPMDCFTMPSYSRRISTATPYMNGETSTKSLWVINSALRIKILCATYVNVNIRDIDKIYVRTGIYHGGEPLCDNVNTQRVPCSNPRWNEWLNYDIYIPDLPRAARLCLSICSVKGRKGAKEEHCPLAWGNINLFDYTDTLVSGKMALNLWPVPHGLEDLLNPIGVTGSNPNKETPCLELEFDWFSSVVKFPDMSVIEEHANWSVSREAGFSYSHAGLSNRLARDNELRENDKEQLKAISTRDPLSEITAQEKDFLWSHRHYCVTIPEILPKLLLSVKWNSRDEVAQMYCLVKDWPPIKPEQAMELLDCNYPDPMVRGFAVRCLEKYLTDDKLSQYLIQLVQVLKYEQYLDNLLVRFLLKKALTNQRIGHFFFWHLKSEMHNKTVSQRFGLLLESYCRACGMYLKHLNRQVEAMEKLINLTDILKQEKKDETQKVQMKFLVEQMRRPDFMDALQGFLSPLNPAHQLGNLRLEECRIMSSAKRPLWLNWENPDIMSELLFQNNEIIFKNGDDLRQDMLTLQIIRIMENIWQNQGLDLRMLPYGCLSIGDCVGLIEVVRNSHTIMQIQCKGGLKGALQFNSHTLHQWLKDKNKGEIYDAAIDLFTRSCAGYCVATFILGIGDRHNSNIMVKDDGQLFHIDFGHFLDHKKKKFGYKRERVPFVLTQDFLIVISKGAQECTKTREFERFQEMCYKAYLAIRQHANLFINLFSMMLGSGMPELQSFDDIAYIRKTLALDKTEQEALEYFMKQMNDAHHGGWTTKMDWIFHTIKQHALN

[8] = target: Serine/threonine-protein kinase MARK2 (Homo sapiens) (UniProt Q7KZI7); assay: Inhibition of MARK2 (unknown origin) assessed as residual activity at 1000 nM by KINOMEscan analysis relative to control
Chain of Serine/threonine-protein kinase MARK2 (Homo sapiens) (Q7KZI7 whole entry, canonical isoform): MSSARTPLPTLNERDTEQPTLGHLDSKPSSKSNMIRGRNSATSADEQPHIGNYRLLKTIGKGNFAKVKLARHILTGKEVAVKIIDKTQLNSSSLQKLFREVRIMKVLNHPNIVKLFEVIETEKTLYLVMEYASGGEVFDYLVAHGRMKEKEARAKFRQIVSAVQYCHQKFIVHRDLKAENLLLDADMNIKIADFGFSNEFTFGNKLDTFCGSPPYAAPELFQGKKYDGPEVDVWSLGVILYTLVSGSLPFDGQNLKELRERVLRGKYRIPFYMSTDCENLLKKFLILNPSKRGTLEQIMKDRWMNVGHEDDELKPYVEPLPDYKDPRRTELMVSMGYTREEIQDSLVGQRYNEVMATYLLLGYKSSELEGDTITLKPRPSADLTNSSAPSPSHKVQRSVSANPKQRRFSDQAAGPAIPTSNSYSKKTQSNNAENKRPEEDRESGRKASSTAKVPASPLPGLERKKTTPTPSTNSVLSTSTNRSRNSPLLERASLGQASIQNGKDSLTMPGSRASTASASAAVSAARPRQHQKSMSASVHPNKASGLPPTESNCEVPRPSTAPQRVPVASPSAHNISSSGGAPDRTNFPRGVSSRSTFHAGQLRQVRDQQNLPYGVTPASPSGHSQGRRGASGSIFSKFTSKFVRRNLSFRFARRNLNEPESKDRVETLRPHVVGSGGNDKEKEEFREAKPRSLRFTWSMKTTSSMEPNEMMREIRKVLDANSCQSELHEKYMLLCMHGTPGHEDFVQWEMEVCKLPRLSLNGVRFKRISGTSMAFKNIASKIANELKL

[9] = system: Phosphatidylinositol 4,5-bisphosphate 3-kinase catalytic subunit alpha isoform (Homo sapiens), P42336 [E545K]; assay: Inhibition of PIK3CA E545K mutant (unknown origin) assessed as residual activity at 1000 nM by KINOMEscan analysis relative to control
Chain of Phosphatidylinositol 4,5-bisphosphate 3-kinase catalytic subunit alpha isoform (Homo sapiens), P42336 [E545K] (P42336 whole entry E545K, canonical isoform): as the sequence (P42336 whole entry E545A, canonical isoform) above, with A545K counted along it

[10] = target: Proto-oncogene tyrosine-protein kinase Src (Homo sapiens) (UniProt P12931); assay: Inhibition of SRC (unknown origin) assessed as residual activity at 1000 nM by KINOMEscan analysis relative to control
Chain of Proto-oncogene tyrosine-protein kinase Src (Homo sapiens) (P12931 2-536 limits assumed): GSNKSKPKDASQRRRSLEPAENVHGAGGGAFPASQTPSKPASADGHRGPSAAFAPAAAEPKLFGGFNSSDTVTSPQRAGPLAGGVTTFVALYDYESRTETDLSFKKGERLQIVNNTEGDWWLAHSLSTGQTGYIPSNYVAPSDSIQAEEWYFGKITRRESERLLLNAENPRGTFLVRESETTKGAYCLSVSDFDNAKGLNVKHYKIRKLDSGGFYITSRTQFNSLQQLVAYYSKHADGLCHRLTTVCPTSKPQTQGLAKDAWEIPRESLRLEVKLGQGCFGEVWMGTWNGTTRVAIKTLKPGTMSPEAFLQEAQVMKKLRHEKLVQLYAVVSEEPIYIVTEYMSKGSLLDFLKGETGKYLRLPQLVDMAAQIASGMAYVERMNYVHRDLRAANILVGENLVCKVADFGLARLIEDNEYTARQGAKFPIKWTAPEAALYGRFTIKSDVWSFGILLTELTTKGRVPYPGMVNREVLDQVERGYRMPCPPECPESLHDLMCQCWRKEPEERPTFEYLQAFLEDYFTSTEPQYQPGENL

Chain of Phosphatidylinositol 4,5-bisphosphate 3-kinase catalytic subunit alpha isoform (Homo sapiens), P42336 [M1043I] (P42336 whole entry M1043I, canonical isoform): as the sequence (P42336 whole entry E545A, canonical isoform) above, with A545E, M1043I counted along it

SMILES	Activity [1] [%]	Activity [2] [%]	Activity [3] [%]	Activity (Homo sapiens) [%]	Activity [4] [%]	Activity [5] [%]	Activity [6] [%]	Activity [7] [%]	Activity [8] [%]	Activity [9] [%]	Activity [10] [%]
COc1cc2nc(C)nc(N[C@H](C)c3cccc(-c4cn[nH]c4)c3)c2cc1OC	100	89	100	64	99	100	89	66	100	54	97
COc1cc2ncnc(N[C@H](C)c3cccc4ccccc34)c2cc1OC	92	91	100	100	99	81	89	91	75	98	96
